In this experiment the test system is BDF1 mice, colon carcinoma 38 sc, T/C %. The experiment is described as follows: NCI In Vivo Anticancer Drug Screen. Data for tumor model Colon Carcinoma 38 (subcutaneous) in B6D2F1 (BDF1) mice. As to conditions: endpoint: median tumor weight (est.), higher = larger tumour. The gist of the method: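 Ratio of survival or tumor size, compound-treated animals relative to vehicle controls, in tumor-bearing mice.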

Setting [1] is: dose: 12.5 mg/kg/injection, schedule: Q07DX002 (ip), vehicle: saline with Tween-80.
Where [2] appears, read: dose: 25.0 mg/kg/injection, schedule: Q07DX002 (ip), vehicle: saline with Tween-80.
The mark [3] stands for this setting: dose: 50.0 mg/kg/injection, schedule: Q07DX002 (ip), vehicle: saline with Tween-80.
[4] abbreviates: dose: 100.0 mg/kg/injection, schedule: Q07DX002 (ip), vehicle: saline with Tween-80.
[5] abbreviates: dose: 200.0 mg/kg/injection, schedule: Q07DX002 (ip), vehicle: saline with Tween-80.

The structures appear in SMILES notation. Several values for one entry are separate records, joined by “and”; a condition that tells them apart may be missing. Equal entries are not always repeated. Inconclusive results are not listed.

As for `CC(C)NCC(O)COc1cccc2ccccc12` (stereo not drawn), the T/C (dose: 4.0 mg/kg/injection, schedule: Q07DX002 (ip), vehicle: Klucel (hydroxypropylcellulose) (HPC)) is 122 % of control; the T/C (dose: 8.0 mg/kg/injection, schedule: Q07DX002 (ip), vehicle: Klucel (hydroxypropylcellulose) (HPC)) is 100 % of control; the T/C (dose: 64.0 mg/kg/injection, schedule: Q07DX002 (ip), vehicle: Klucel (hydroxypropylcellulose) (HPC)) was 88 % of control.
Take `COc1cc(NS(C)(=O)=O)ccc1Nc1c2ccccc2nc2ccccc12`: the T/C reads like this: (dose: 0.5 mg/kg/injection, schedule: Q07DX003 (ip), vehicle: other) 68 % of control; (dose: 1.0 mg/kg/injection, schedule: Q07DX002 (ip), vehicle: other) 93 % of control; (dose: 1.0 mg/kg/injection, schedule: Q07DX003 (ip), vehicle: other) 88 % of control; (dose: 2.0 mg/kg/injection, schedule: Q07DX003 (ip), vehicle: other) 42 % of control; (dose: 4.0 mg/kg/injection, schedule: Q07DX002 (ip), vehicle: other) 78 % of control and 91 % of control; (dose: 4.0 mg/kg/injection, schedule: Q07DX003 (ip), vehicle: other) 56 % of control. In addition, under “dose: 8.0 mg/kg/injection, schedule: Q07DX003 (ip), vehicle: other”, the T/C is 47 % of control.
Regarding `C[CH2][Ge]([CH2]C)[CH2]C.C[CH2][Ge]([CH2]C)[CH2]C.C[CH2][Ge]([CH2]C)[O][Ge]([CH2]C)[CH2]C`, the T/C reads like this: under setting [1], 80 % of control; under setting [2], 90 % of control; under setting [3], 87 % of control; under setting [4], 68 % of control; under setting [5], 81 % of control and 95 % of control; (dose: 800.0 mg/kg/injection, schedule: Q07DX002 (ip), vehicle: saline with Tween-80) 90 % of control.
Turning to `CCN=C=NCCCN(C)C`, the T/C by setting is: (dose: 12.5 mg/kg/injection, schedule: Q07DX002 (ip), vehicle: saline) 118 % of control; (dose: 25.0 mg/kg/injection, schedule: Q07DX002 (ip), vehicle: saline) 103 % of control; (dose: 50.0 mg/kg/injection, schedule: Q07DX002 (ip), vehicle: saline) 120 % of control; (dose: 100.0 mg/kg/injection, schedule: Q07DX002 (ip), vehicle: saline) 100 % of control.
With `CC1(C)OCC(CO)(Nc2nc(N3CC3)nc(N3CC3)n2)CO1`, the T/C is, setting by setting: (dose: 1.25 mg/kg/injection, schedule: Q07DX002 (ip), vehicle: saline) 72 % of control; (dose: 1.25 mg/kg/injection, schedule: Q07DX003 (ip), vehicle: saline) 166 % of control; (dose: 2.5 mg/kg/injection, schedule: Q07DX002 (ip), vehicle: saline) 75 % of control; (dose: 2.5 mg/kg/injection, schedule: Q07DX003 (ip), vehicle: saline) 111 % of control; (dose: 5.0 mg/kg/injection, schedule: Q07DX002 (ip), vehicle: saline) 65 % of control; (dose: 5.0 mg/kg/injection, schedule: Q07DX003 (ip), vehicle: saline) 49 % of control. The T/C (dose: 10.0 mg/kg/injection, schedule: Q07DX002 (ip), vehicle: saline) was 15 % of control.
In the case of `Cc1cn(C2CC(O)C(CO)O2)c(=O)[nH]c1=O` (stereo not drawn), the T/C runs as follows: (dose: 25.0 mg/kg/injection, schedule: Q07DX003 (ip), vehicle: saline) 54 % of control and 79 % of control; (dose: 50.0 mg/kg/injection, schedule: Q03HX024 (ip), vehicle: saline) 95 % of control; (dose: 50.0 mg/kg/injection, schedule: Q07DX003 (ip), vehicle: saline) 76 % of control; (dose: 100.0 mg/kg/injection, schedule: Q03HX024 (ip), vehicle: saline) 98 % of control; (dose: 200.0 mg/kg/injection, schedule: Q03HX024 (ip), vehicle: saline) 66 % of control; (dose: 200.0 mg/kg/injection, schedule: Q07DX003 (ip), vehicle: saline) 90 % of control. Also, the T/C runs as follows: (dose: 400.0 mg/kg/injection, schedule: Q03HX024 (ip), vehicle: saline) 122 % of control; (dose: 400.0 mg/kg/injection, schedule: Q07DX003 (ip), vehicle: saline) 89 % of control and 101 % of control.
In the case of `CN(C)/N=N/c1nc[nH]c1C(N)=O`, the T/C (dose: 12.5 mg/kg/injection, schedule: Q07DX002 (ip), vehicle: Klucel (hydroxypropylcellulose) (HPC)) was 28 % of control; the T/C (dose: 25.0 mg/kg/injection, schedule: Q07DX002 (ip), vehicle: Klucel (hydroxypropylcellulose) (HPC)) was 64 % of control; the T/C (dose: 25.0 mg/kg/injection, schedule: Q07DX003 (ip), vehicle: Klucel (hydroxypropylcellulose) (HPC)) is 75 % of control; the T/C (dose: 25.0 mg/kg/injection, schedule: Q07DX003 (ip), vehicle: carboxymethylcellulose (CMC)) was 37 % of control; the T/C (dose: 50.0 mg/kg/injection, schedule: Q07DX002 (ip), vehicle: Klucel (hydroxypropylcellulose) (HPC)) was 40 % of control; the T/C (dose: 50.0 mg/kg/injection, schedule: Q07DX003 (ip), vehicle: Klucel (hydroxypropylcellulose) (HPC)) was 43 % of control. Besides, the T/C reads like this: (dose: 50.0 mg/kg/injection, schedule: Q07DX003 (ip), vehicle: carboxymethylcellulose (CMC)) 28 % of control; (dose: 100.0 mg/kg/injection, schedule: Q07DX002 (ip), vehicle: Klucel (hydroxypropylcellulose) (HPC)) 74 % of control and 75 % of control; (dose: 100.0 mg/kg/injection, schedule: Q07DX003 (ip), vehicle: Klucel (hydroxypropylcellulose) (HPC)) 85 % of control; (dose: 100.0 mg/kg/injection, schedule: Q07DX003 (ip), vehicle: carboxymethylcellulose (CMC)) 16 % of control; (dose: 200.0 mg/kg/injection, schedule: Q07DX002 (ip), vehicle: Klucel (hydroxypropylcellulose) (HPC)) 12 % of control and 28 % of control; (dose: 200.0 mg/kg/injection, schedule: Q07DX003 (ip), vehicle: Klucel (hydroxypropylcellulose) (HPC)) 9 % of control. For the same molecule, the T/C was 16 % of control (dose: 200.0 mg/kg/injection, schedule: Q07DX003 (ip), vehicle: carboxymethylcellulose (CMC)); 13 % of control and 33 % of control (dose: 400.0 mg/kg/injection, schedule: Q07DX002 (ip), vehicle: Klucel (hydroxypropylcellulose) (HPC)); 44 % of control (dose: 400.0 mg/kg/injection, schedule: Q07DX003 (ip), vehicle: Klucel (hydroxypropylcellulose) (HPC)).
Regarding `CC1=CC2OC3C(OC(=O)CCCCl)C(OC(=O)CCCCl)C(C)(C2(CO)CC1)C31CO1` (stereo not drawn), the T/C was 103 % of control (dose: 2.0 mg/kg/injection, schedule: Q07DX003 (ip), vehicle: saline with Tween-80); 76 % of control (dose: 8.0 mg/kg/injection, schedule: Q07DX003 (ip), vehicle: saline with Tween-80); 83 % of control (dose: 16.0 mg/kg/injection, schedule: Q07DX003 (ip), vehicle: saline with Tween-80).
Take `O=S(=O)(N=N/C=C1\C=CC=CN1O)c1cccs1`: the T/C is, setting by setting: under setting [1], 85 % of control; under setting [2], 108 % of control and 98 % of control; under setting [3], 92 % of control and 100 % of control; under setting [4], 84 % of control and 99 % of control; (dose: 400.0 mg/kg/injection, schedule: Q07DX002 (ip), vehicle: saline with Tween-80) 67 % of control.
Consider `CS(=O)(=O)c1ncc(Br)cn1`, for which the T/C is, setting by setting: (dose: 6.25 mg/kg/injection, schedule: Q07DX002 (ip), vehicle: saline with Tween-80) 106 % of control; under setting [1], 76 % of control; under setting [3], 94 % of control; under setting [4], 113 % of control; under setting [5], 106 % of control.

(Values after PubChem BioAssay AID212 (DTP/NCI, 2004).)
